In brackets after ≈: the same amount, converted by molar mass.
Key:
[1] = system: Mycobacterium tuberculosis H37Rv; assay: Antibacterial activity against Mycobacterium tuberculosis H37Rv expressing GFP incubated for 7 days; type: functional, Mycobacterium tuberculosis variant bovis
[2] = system: Mycobacterium tuberculosis H37Rv; assay: Antibacterial activity against Mycobacterium tuberculosis H37Rv expressing GFP infected in mouse Raw264.7 cells incubated for 5 days by SYTO 60 staining method; type: functional
[3] = system: Mycobacterium tuberculosis variant bovis; assay: Antibacterial activity against VLDL-treated Mycobacterium bovis BCG assessed as level of intrabacterial lipid inclusions profile relative to control; type: functional
[4] = Mycobacterium tuberculosis variant bovis, time 5.0 day

SMILES	MIC50 ([1]; 168 h, time 7 day)	MIC50 ([2]; 120 h, time 5 day)	other results
CCCCCCCCCCCCCCCCOP1(=O)OCCC(C(=O)OC)=C(C)O1 (centres undefined)	0.5 µM (≈ 0.223 µg/mL)	–	MIC50 [2, 4]: NE
CCCCCCCCCCCC[C@H]1CC[P@@](=O)(OC)OC(C)=C1C(=O)OC	> 100 µM	–	–
CO[C@H]1/C=C/O[C@@]2(C)Oc3c(C)c(O)c4c(O)c(c(/C=N/N5CCN(C)CC5)c(O)c4c3C2=O)NC(=O)/C(C)=C\C=C\[C@H](C)[C@H](O)[C@@H](C)[C@@H](O)[C@@H](C)[C@H](OC(C)=O)[C@@H]1C [RIFAMPIN]	0.01 µM (≈ 0.00823 µg/mL)	2.9 µM (≈ 2.39 µg/mL)	–
CC(C)COc1nn(-c2ccccc2)c(=O)o1	> 50 µM	17.1 µM (≈ 4.01 µg/mL)	–
COc1nn(-c2cccc(Oc3ccccc3)c2)c(=O)o1	–	–	Activity [3]: 90%
CCCCCCCCCCCCCCCCO[P@]1(=O)OC[C@@H]2COC(=O)C2=C(C)O1	–	–	MIC50 [2, 4]: NE
NNC(=O)c1ccncc1 [ISONIAZID]	1.2 µM (≈ 0.165 µg/mL)	1.2 µM (≈ 0.165 µg/mL)	–
CCCCCCCCCC[C@H]1CC[P@@](=O)(OC)OC(C)=C1C(=O)OC	16.6 µM (≈ 6.22 µg/mL)	3.1 µM (≈ 1.16 µg/mL)	–
CCCCCCCCCCCCCCCCO[P@]1(=O)OC[C@H]2COC(=O)C2=C(C)O1	1.7 µM (≈ 0.756 µg/mL)	–	MIC50 [2, 4]: NE
CCCCCCOc1nn(-c2ccc(Oc3ccccc3)cc2)c(=O)o1	> 50 µM	9.5 µM (≈ 3.37 µg/mL)	–
O=c1oc(OCCOCc2ccccc2)nn1-c1ccccc1	30.8 µM (≈ 9.62 µg/mL)	–	MIC50 [2, 4]: NE
CCCCC[C@H]1CC[P@@](=O)(OC)OC(C)=C1C(=O)OC	–	–	MIC50 ([1]; Mycobacterium tuberculosis variant bovis, time 7.0 day): NE
CCCCCCCCCC[C@@H]1CC[P@@](=O)(OC)OC(C)=C1C(=O)OC	–	4.5 µM (≈ 1.69 µg/mL)	–
CC(C)COc1nn(-c2ccc(Oc3ccccc3)cc2)c(=O)o1	32 µM (≈ 10.4 µg/mL)	8.5 µM (≈ 2.77 µg/mL)	–
CCCCCCCCCCCC[C@@H]1CC[P@@](=O)(OC)OC(C)=C1C(=O)OC	40.4 µM (≈ 16.3 µg/mL)	4 µM (≈ 1.61 µg/mL)	–
CCCCCCOc1nn(-c2ccccc2)c(=O)o1	44.6 µM (≈ 11.7 µg/mL)	–	MIC50 [2, 4]: NE
O=c1oc(OCCOCc2ccccc2)nn1-c1ccc(Oc2ccccc2)cc1	> 50 µM	3.5 µM (≈ 1.42 µg/mL)	–

Source: ChEMBL document CHEMBL5113371, “Lipolytic enzymes inhibitors: A new way for antibacterial drugs discovery” (Eur J Med Chem, 2021)
